Assay results taken from ChEMBL document CHEMBL3593229, “Identification of a potent 5-phenyl-thiazol-2-ylamine-based inhibitor of FLT3 with activity against drug resistance-conferring point mutations” (Eur J Med Chem, 2015).

Columns and labels:
U-937 = assay: cells; type: functional; conditions: Homo sapiens, U-937, 72 h
Description: Cytotoxicity against FLT3-deficient human U937 cells assessed as cell growth inhibition after 72 hrs by MTS assay

[1] = Oral bioavailability in Sprague-Dawley rat at 10 mg/kg; type: ADME, organism-based; conditions: in vivo
[2] = target: Proto-oncogene tyrosine-protein kinase Src (Homo sapiens) (UniProt P12931); assay: Inhibition of human SRC at 0.1 uM relative to control
Proto-oncogene tyrosine-protein kinase Src (Homo sapiens), sequence (P12931 2-536 limits assumed): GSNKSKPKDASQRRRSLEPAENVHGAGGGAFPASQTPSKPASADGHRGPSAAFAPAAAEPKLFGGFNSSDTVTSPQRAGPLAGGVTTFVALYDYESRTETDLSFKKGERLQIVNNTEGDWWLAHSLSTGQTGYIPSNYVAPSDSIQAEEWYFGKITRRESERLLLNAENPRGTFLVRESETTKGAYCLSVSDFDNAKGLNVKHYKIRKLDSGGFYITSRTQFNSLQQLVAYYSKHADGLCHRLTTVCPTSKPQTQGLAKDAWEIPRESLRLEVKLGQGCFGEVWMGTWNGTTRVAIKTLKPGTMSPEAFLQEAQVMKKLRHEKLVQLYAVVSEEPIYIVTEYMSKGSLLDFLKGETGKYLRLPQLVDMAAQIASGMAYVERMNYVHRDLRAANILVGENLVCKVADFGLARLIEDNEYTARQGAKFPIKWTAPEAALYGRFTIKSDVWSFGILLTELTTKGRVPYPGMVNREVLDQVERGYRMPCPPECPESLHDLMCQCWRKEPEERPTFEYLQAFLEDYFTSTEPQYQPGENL

[3] = target: Aurora kinase A (Homo sapiens) (UniProt O14965); assay: Inhibition of human AURKA at 0.1 uM relative to control
[4] = system: Proto-oncogene tyrosine-protein kinase receptor Ret (Homo sapiens), P07949 [V804L]; assay: Inhibition of human RET V804L mutant at 0.1 uM relative to control
[5] = target: Tyrosine-protein kinase Lyn (Homo sapiens) (UniProt P07948); assay: Inhibition of human LYNB at 0.1 uM relative to control
[6] = target: Vascular endothelial growth factor receptor 3 (Homo sapiens) (UniProt P35916); assay: Inhibition of human FLT4 at 0.1 uM relative to control
Vascular endothelial growth factor receptor 3 (Homo sapiens), sequence (P35916 whole entry): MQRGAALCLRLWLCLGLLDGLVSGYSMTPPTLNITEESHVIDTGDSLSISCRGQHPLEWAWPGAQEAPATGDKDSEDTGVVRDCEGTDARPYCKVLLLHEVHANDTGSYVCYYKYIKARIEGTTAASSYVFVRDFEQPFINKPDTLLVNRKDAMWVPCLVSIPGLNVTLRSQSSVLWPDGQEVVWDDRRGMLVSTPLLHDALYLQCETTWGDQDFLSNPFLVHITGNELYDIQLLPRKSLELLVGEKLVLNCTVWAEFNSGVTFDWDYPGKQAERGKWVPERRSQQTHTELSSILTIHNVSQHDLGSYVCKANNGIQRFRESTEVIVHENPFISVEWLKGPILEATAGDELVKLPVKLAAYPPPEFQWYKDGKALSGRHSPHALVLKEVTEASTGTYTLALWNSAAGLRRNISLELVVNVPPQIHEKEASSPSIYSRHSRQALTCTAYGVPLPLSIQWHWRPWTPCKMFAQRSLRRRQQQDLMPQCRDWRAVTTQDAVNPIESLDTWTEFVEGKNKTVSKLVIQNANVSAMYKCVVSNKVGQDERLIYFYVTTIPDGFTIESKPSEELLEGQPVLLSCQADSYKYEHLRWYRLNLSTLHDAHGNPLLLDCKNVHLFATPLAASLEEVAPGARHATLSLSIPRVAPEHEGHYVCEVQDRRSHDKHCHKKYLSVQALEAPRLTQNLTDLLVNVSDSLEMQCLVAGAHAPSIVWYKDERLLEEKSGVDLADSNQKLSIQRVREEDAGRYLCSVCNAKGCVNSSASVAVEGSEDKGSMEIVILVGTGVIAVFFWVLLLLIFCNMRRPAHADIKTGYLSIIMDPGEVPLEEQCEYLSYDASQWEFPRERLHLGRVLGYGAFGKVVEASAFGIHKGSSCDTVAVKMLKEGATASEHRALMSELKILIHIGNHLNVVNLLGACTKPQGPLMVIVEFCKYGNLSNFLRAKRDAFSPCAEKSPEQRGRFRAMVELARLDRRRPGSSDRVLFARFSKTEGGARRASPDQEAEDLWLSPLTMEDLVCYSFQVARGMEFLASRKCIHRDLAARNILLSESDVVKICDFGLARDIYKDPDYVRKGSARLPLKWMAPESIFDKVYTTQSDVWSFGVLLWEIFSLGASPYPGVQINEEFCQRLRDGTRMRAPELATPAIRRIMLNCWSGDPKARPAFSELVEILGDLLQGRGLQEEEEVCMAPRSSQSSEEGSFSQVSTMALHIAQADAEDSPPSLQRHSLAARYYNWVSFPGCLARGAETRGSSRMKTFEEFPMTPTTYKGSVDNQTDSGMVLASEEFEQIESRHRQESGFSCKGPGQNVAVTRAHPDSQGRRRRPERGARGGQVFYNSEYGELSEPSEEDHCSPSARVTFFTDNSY

[7] = target: Tyrosine-protein kinase Yes (Homo sapiens) (UniProt P07947); assay: Inhibition of human YES1 at 0.1 uM relative to control
Tyrosine-protein kinase Yes (Homo sapiens), sequence (P07947 2-543 limits assumed): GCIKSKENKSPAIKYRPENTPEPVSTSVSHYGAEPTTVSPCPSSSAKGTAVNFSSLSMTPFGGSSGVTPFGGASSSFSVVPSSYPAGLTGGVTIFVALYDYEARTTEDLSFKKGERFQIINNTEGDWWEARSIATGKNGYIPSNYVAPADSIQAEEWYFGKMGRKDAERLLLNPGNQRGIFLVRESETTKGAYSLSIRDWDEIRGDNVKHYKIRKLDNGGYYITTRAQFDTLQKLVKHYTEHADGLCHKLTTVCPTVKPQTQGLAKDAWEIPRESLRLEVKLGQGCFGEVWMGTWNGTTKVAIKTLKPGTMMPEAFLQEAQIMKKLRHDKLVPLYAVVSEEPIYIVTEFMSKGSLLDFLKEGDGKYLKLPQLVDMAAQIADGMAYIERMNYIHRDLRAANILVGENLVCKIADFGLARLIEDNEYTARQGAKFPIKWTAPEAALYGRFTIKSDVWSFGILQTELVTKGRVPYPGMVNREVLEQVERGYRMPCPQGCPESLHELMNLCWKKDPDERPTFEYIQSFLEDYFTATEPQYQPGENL

[8] = target: Tyrosine-protein kinase ABL1 (Homo sapiens) (UniProt P00519); assay: Inhibition of human ABL1 at 0.1 uM relative to control
[9] = system: Platelet-derived growth factor receptor alpha (Homo sapiens), P16234 [V561D]; assay: Inhibition of human PDGFRA V561D mutant at 0.1 uM relative to control
[10] = target: Interleukin-1 receptor-associated kinase 4 (Homo sapiens) (UniProt Q9NWZ3); assay: Inhibition of human IRAK4 at 0.1 uM relative to control
[11] = target: Tyrosine-protein kinase BTK (Homo sapiens) (UniProt Q06187); assay: Inhibition of human BTK at 0.1 uM relative to control
[12] = target: Serine/threonine-protein kinase B-raf (Homo sapiens) (UniProt P15056); assay: Inhibition of human BRAF at 0.1 uM relative to control
[13] = target: Tyrosine-protein kinase receptor TYRO3 (Homo sapiens) (UniProt Q06418); assay: Inhibition of human TYRO3 at 0.1 uM relative to control
Tyrosine-protein kinase receptor TYRO3 (Homo sapiens), sequence (Q06418 whole entry): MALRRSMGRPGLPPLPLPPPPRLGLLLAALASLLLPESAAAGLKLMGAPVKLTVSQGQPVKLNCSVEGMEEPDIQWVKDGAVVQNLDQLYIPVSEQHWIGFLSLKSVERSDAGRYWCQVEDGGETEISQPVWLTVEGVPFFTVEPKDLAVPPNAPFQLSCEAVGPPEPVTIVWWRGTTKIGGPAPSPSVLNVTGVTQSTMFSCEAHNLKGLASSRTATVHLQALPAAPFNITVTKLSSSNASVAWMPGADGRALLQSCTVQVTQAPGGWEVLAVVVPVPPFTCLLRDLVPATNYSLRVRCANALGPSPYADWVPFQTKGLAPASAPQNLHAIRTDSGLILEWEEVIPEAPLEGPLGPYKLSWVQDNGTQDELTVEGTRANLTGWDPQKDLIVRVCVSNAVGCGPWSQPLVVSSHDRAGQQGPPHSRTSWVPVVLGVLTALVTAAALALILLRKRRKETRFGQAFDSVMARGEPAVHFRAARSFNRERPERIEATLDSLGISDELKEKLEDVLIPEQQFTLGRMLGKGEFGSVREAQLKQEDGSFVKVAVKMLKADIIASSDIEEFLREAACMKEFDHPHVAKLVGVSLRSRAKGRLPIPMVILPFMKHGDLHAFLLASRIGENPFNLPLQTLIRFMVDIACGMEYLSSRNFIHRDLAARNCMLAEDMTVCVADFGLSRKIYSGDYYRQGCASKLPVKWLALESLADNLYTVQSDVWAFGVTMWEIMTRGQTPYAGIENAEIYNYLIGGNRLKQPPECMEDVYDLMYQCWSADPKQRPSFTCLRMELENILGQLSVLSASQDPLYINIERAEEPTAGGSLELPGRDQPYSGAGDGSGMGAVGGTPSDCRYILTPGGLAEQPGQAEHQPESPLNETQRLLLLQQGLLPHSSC

[14] = target: Serine/threonine-protein kinase Nek1 (Homo sapiens) (UniProt Q96PY6); assay: Inhibition of human NEK1 at 0.1 uM relative to control
[15] = target: Tyrosine-protein kinase CSK (Homo sapiens) (UniProt P41240); assay: Inhibition of human CSK at 0.1 uM relative to control
[16] = target: Non-receptor tyrosine-protein kinase TYK2 (Homo sapiens) (UniProt P29597); assay: Inhibition of human TYK2 at 0.1 uM relative to control
[17] = system: Platelet-derived growth factor receptor alpha (Homo sapiens), P16234 [D842V]; assay: Inhibition of human PDGFRA D842V mutant at 0.1 uM relative to control
[18] = target: Inhibitor of nuclear factor kappa-B kinase subunit epsilon (Homo sapiens) (UniProt Q14164); assay: Inhibition of human IKKepsilon at 0.1 uM relative to control
[19] = target: Serine/threonine-protein kinase Chk1 (Homo sapiens) (UniProt O14757); assay: Inhibition of human CHK1 at 0.1 uM relative to control
Serine/threonine-protein kinase Chk1 (Homo sapiens), sequence (O14757 whole entry): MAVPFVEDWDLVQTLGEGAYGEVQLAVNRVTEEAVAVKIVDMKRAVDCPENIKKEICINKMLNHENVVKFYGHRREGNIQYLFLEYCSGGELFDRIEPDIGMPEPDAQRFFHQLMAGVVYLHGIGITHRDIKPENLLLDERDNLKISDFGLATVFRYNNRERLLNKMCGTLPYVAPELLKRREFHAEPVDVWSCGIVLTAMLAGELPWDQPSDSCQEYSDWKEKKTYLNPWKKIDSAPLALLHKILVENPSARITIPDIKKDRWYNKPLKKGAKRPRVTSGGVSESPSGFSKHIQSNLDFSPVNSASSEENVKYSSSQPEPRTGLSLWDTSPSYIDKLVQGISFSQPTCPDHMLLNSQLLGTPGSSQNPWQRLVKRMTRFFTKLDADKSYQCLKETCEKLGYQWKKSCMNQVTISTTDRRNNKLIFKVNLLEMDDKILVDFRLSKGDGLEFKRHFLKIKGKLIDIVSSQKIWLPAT

[20] = target: Fibroblast growth factor receptor 1 (Homo sapiens) (UniProt P11362); assay: Inhibition of human FGFR1 at 0.1 uM relative to control
[21] = target: Serine/threonine-protein kinase PLK1 (Homo sapiens) (UniProt P53350); assay: Inhibition of human PLK1 at 0.1 uM relative to control
[22] = target: Serine/threonine-protein kinase Sgk2 (Homo sapiens) (UniProt Q9HBY8); assay: Inhibition of human SGK2 at 0.1 uM relative to control
Serine/threonine-protein kinase Sgk2 (Homo sapiens), sequence (Q9HBY8 whole entry): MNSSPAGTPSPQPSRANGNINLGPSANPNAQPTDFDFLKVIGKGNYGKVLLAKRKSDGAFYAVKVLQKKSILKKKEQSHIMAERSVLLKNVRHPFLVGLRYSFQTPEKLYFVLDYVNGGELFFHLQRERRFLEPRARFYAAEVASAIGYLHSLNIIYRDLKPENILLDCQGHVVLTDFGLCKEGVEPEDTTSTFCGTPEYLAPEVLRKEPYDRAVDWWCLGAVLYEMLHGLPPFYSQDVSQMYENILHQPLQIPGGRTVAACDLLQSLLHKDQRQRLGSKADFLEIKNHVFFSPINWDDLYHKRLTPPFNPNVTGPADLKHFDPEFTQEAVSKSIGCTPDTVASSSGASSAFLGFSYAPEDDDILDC

[23] = target: CDK2/Cyclin A2 (Homo sapiens) (UniProt P24941+P20248); assay: Inhibition of human CDK2/cyclin A at 0.1 uM relative to control; type: protein-complex assay
[24] = target: Glycogen synthase kinase-3 alpha (Homo sapiens) (UniProt P49840); assay: Inhibition of human GSK3A at 0.1 uM relative to control
Glycogen synthase kinase-3 alpha (Homo sapiens), sequence (P49840 2-483 limits assumed): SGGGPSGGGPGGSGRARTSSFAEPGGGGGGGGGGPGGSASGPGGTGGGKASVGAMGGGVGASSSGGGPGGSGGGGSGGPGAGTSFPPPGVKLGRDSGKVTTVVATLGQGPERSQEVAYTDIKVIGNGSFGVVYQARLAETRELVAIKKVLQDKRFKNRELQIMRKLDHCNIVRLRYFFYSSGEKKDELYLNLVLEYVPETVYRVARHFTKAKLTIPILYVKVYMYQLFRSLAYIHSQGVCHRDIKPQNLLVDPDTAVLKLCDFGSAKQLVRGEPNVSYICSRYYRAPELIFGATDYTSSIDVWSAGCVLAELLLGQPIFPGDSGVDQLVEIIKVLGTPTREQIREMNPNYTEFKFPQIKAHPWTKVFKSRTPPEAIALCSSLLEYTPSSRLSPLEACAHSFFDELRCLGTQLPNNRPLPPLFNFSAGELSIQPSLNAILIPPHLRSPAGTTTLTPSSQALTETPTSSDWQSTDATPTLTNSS

[25] = target: Receptor tyrosine-protein kinase erbB-2 (Homo sapiens) (UniProt P04626); assay: Inhibition of human HER2 at 0.1 uM relative to control
[26] = target: Ribosomal protein S6 kinase alpha-3 (Homo sapiens) (UniProt P51812); assay: Inhibition of human RSK2 at 0.1 uM relative to control
[27] = target: Tyrosine-protein kinase JAK2 (Homo sapiens) (UniProt O60674); assay: Inhibition of human JAK2 at 0.1 uM relative to control
[28] = target: Serine/threonine-protein kinase Nek2 (Homo sapiens) (UniProt P51955); assay: Inhibition of human NEK2 at 0.1 uM relative to control
[29] = target: Serine/threonine-protein kinase mTOR (Homo sapiens) (UniProt P42345); assay: Inhibition of human mTOR at 0.1 uM relative to control
[30] = target: Tyrosine-protein kinase JAK1 (Homo sapiens) (UniProt P23458); assay: Inhibition of human JAK1 at 0.1 uM relative to control
[31] = target: Receptor-type tyrosine-protein kinase FLT3 (Homo sapiens, UniProt P36888, ITD); assay: Inhibition of FLT3 ITD mutant (unknown origin) phosphorylation expressed in HEK293T cells preincubated for 1 hr followed by FLT3 ligand addition for 5 mins by Western blot analysis; type: cell-based, HEK-293T
[32] = target: Receptor-type tyrosine-protein kinase FLT3 (Homo sapiens, UniProt P36888, F691L); assay: Inhibition of FLT3 ITD F691L mutant (unknown origin) phosphorylation expressed in HEK293T cells preincubated for 1 hr followed by FLT3 ligand addition for 5 mins by Western blot analysis; type: cell-based, HEK-293T
[33] = Volume of distribution at steady state in Sprague-Dawley rat at 2 mg/kg, iv; type: ADME, organism-based; conditions: in vivo, read-out: Vdss
[34] = Half life in ICR mouse at 10 mg/kg, po; type: ADME, organism-based; conditions: in vivo
[35] = Cmax in ICR mouse at 10 mg/kg, po; type: ADME, organism-based; set-up: dose 10 mg/kg, route oral; conditions: in vivo
Mus musculus = assay: Antitumor activity against human MOLM13 cells xenografted in SCID mouse assessed as increase in survival at 10 mg/kg, po qd administered on day 1 to 5 relative to vehicle-treated control; type: functional, MOLM-13
[36] = target: Receptor-type tyrosine-protein kinase FLT3 (Homo sapiens) (UniProt P36888); conditions: RS4:11 cell
Description: Inhibition of wild type homozygous FLT3 in human RS4:11 cells assessed as cell growth inhibition after 72 hrs by MTS assay

[37] = target: Vascular endothelial growth factor receptor 2 (Homo sapiens, UniProt P35968); conditions: 0.1 uM
Description: Inhibition of human KDR at 0.1 uM relative to control

[38] = system: Receptor-type tyrosine-protein kinase FLT3 (Homo sapiens), P36888 [D835Y]
[39] = system: Receptor-type tyrosine-protein kinase FLT3 (Homo sapiens), P36888 [D835F]

`CCc1cc(NC(=O)Nc2ccc(-c3cnc(Nc4cc(N5CCN(CC)CC5)nc(C)n4)s3)cc2)no1` gave a GI50 (U-937) of 1100 nM, a bioavailability [1] of 20% and an inhibition [2] of 93%. For the same molecule, the inhibition [3] was 96%, the inhibition [4] was 65% and the inhibition [5] was 88%. The inhibition [6] was 80%, the inhibition [7] was 72% and the inhibition [8] was 66%. The inhibition [9] was 63%, the inhibition [10] was 61% and the inhibition [11] was 46%. It also gave an inhibition [12] of 36%, an inhibition [13] of 28% and an inhibition [14] of 23%. For the same molecule, the inhibition [15] was 23%, the inhibition [16] was 21% and the inhibition [17] was 21%. For the same molecule, the inhibition [18] was 18%, the inhibition [19] was 17% and the inhibition [20] was 10%. For the same molecule, the inhibition [21] was 9%, the inhibition [22] was 6% and the inhibition [23] was 4%. For the same molecule, the inhibition [24] was 2%, the inhibition [25] was 0% and the inhibition [26] was -1%. The inhibition [27] was -3%, the inhibition [28] was -4% and the inhibition [29] was -7%. For the same molecule, the inhibition [30] was -8%, the IC50 [31] was 10 nM and the IC50 [32] was 10 nM. It also gave a Vd [33] of 8.2 L/kg, a half-life [34] of 1.8 h and a Cmax [35] of 168 ng/mL. The Activity (Mus musculus) was 45%, the GI50 [36] was 110 nM and the inhibition [37] was 85%. It also gave a GI50 [38] of 6 nM and a GI50 [39] of 38 nM.
